Like-named read-outs stand apart in the source and are kept apart here.
Experiments:
SW480 tumor xenografts = format: in vivo, BALB/c nu/nu mice; settings: SW480 xenograft nude mice, n=5, mean±SD
Procedure: All animal experiments were performed in accordance with and approved by the Institutional Animal Care and Use Committee guidelines of the First Affiliated Hospital of Zhejiang University School of Medicine. BALB/c nu/nu mice (female, 20 ± 3 g, 4- to 6-week-old; Department of Laboratory Animal Science, Zhejiang University) were used in this study. The SW480 and BxPC3 xenografts were generated, and 5×10^6 tumor cells were subcutaneously injected into the flanks of female athymic nude mice. The PDX-bearing mouse models were established as follows. Pancreatic cancer (diagnosed as pancreatic ductal adenocarcinoma) tissues were obtained from the surgery of a patient. Written informed consent was obtained from the patient, and the research protocol was approved by the Clinical Research Ethics Committee of the First Affiliated Hospital of Zhejiang University School of Medicine. The sample was sectioned into about 1mm^3 pieces, and the tumor tissues were subcutaneously implanted into BALB/c nu/nu mice flanks. Mice were allowed free access to sterile water and food and were kept under strict disease-free conditions with controlled temperature (~25°C), humidity (50-70%), and circadian rhythms (12-hour light/dark cycles). All necessary procedures were carried out to minimize discomfort and avoid the waste of animals. The length and width of the tumor were measured every other day. Biodistribution studies and positron emission tomography in mice were performed after the tumor volume reached 150 to 200 mm^3.
The BALB/c nude mice were randomized into different tumor models (SW480, BxPC3, and pancreatic PDX), including 5 mice per group. Each nude mouse was injected with 0.74MBq (20μCi) [^18F]AlF-NOTA-ADH-1 through the caudal vein. Blood was collected from the orbit, and the mice were dissected to collect the brain, heart, lung, liver, liver, spleen, stomach, intestine, muscle, bone and others at 30 min, […], 60min, 90min and 120min after injection. In the blocked group, the study was performed with a saturating dose of ADH-1 (20 mg/kg of mouse body weight) intravenously administered 60min before the intravenous injection of [^18F]AlF-NOTA-ADH-1 in the pancreatic PDX model and SW480 xenograft model. The mice in the tumor xenograft model were sacrificed 1h after [^18F]AlF-NOTA-ADH-1 injection. The nude mice were dissected, and tumor tissues and related tissues (blood, brain, heart, lung, liver, spleen, kidney, stomach, intestine, muscle and bone) were weighed, and their radioactivity was measured by γ-counter. The radioactivity results were recorded as % ID/g.

[1] = system: pancreatic PDX tumor xenografts; test: Micro-PET imaging, PDX tumor model; format: in vivo, nude mice; settings: 60 min p.i.
Procedure: [^18F]AlF-NOTA-ADH-1 was evaluated by micro-PET imaging on nude mice bearing a PDX tumor, SW-480 and BxPC3 tumor xenografts. Each tumor-bearing nude mouse was injected with 3.7MBq [^18F]AlF-NOTA-ADH-1 via the tail vein. After being anesthetized with isoflurane, tumor-bearing nude mice were imaged using a micro-PET/CT scanner at 60 minutes post-injection under continuous isoflurane inhalation using a nasal mask with a connecting tube. Micro-PET/CT scanning was performed after low-dose 3D acquisition CT scanning at 10 minutes per bed. A blocking study was conducted, in which a saturating dose of unlabeled ADH-1 (20 mg/kg of mouse body weight) was intravenously administered 60 min before the intravenous injection of [^18F]AlF-NOTA-ADH-1.
The three-dimensional volume of interest (VOI) was used to assess the standard uptake value (SUV) of selected organs. The Seimens Inveon analysis software configured with micro-PET/CT was used to delineate the region of interest along the edge of the tumor and each normal tissue on the PET image. Subsequently, the SUV of each region of interest was measured, and the tumor/non-tumor ratio (T/NT) between the tumor and normal tissue was measured.

[2] = blocking (ADH-1 20 mg/kg i.v. 60min before), 60min p.i.

## CC(=O)N[C@H]1CSSC[C@@H](C(=O)NCCNC(=O)CN2CCN(CC(=O)O)CCN(CC(=O)O)CC2)NC(=O)[C@H](C(C)C)NC(=O)[C@H](C)NC(=O)[C@H](Cc2c[nH]cn2)NC1=O [[^18F]AlF-NOTA-ADH-1]
SW480 tumor xenografts; [2]
  T/Blood ratio: 3.96±0.33
  T/Muscle ratio: 1.03±0.56
  Tumor uptake: 1.07±0.57 %ID/g
SW480 tumor xenografts; non-blocking, 30min p.i.
  T/Blood ratio: 5.77±0.13
  T/Muscle ratio: 1.75±0.47
  Tumor uptake: 1.73±0.11 %ID/g
SW480 tumor xenografts; non-blocking, 60min p.i.
  T/Blood ratio: 7.42±1.01
  T/Muscle ratio: 1.91±0.69
  Tumor uptake: 2.08±1.64 %ID/g
SW480 tumor xenografts; non-blocking, 90min p.i.
  T/Blood ratio: 9.6±0.76
  T/Muscle ratio: 1.23±0.92
  Tumor uptake: 0.96±0.15 %ID/g
SW480 tumor xenografts; non-blocking, 120min p.i.
  T/Blood ratio: 6.08±0.35
  T/Muscle ratio: 0.86±0.23
  Tumor uptake: 0.73±0.67 %ID/g
[1]; 3.7MBq i.v., SUV-based T/NT
  Micro-PET tumor/muscle ratio: 8.069±2.832
[1]; printed in the sentence on blocking with unlabeled ADH-1 (group unclear)
  Micro-PET T/Lung: 5.062 ± 0.805

From article PMC10239968, “[^18F]AlF-NOTA-ADH-1: A new PET molecular radiotracer for imaging of N-cadherin-positive tumors” (Frontiers in Oncology, 2023)
